This note sets out measurements from patent publication US8546414B2, “Ion channel modulators and methods of use” (Vertex Pharmaceuticals Incorporated, priority 2004, dated 2013).

In test [1] the target is T1, NaV1.3 (Homo sapiens, UniProt Q9NY46).
T1 construct: expressed in transfected cells; host or cells: HEK293
The experiment in a line: VIPR optical membrane potential assay with electrical stimulation, NaV1.3. In kind it is cell-based. As to conditions: Table 9, NaV 1.3 receptors. In outline: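 HEK293 cells stably expressing NaV1.3, stained with CC2-DMPE (10 μM final) then DiSBAC2(3) with ABSC1, 30 min each at RT; compounds added with oxonol. Electrical stimulation for 3 s; 460/580 nm background-subtracted emission ratio Rf/Ri, normalised to tetracaine (positive) and untreated (negative) controls.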

For test [2], the target named is T2, CaV2.2 (Homo sapiens, UniProt Q00975).
T2 construct: expressed in transfected cells; host or cells: HEK293
The experiment in a line: VIPR optical membrane potential assay with electrical stimulation, CaV2.2. In kind it is cell-based. As to conditions: Table 9, CaV 2.2 receptors. In a few lines:
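HEK293 cells stably expressing CaV2.2 stained with CC2-DMPE/DiSBAC2(3) voltage-sensitive dyes (10 μM final CC2-DMPE, 30 min, RT), then compound added and cells electrically stimulated for 3-5 s. Read-out: background-subtracted 460/580 nm emission ratio; response R=Rf/Ri (post- vs pre-stimulus ratio); antagonism seen as reduced response.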

T1 sequence (Q9NY46 whole entry): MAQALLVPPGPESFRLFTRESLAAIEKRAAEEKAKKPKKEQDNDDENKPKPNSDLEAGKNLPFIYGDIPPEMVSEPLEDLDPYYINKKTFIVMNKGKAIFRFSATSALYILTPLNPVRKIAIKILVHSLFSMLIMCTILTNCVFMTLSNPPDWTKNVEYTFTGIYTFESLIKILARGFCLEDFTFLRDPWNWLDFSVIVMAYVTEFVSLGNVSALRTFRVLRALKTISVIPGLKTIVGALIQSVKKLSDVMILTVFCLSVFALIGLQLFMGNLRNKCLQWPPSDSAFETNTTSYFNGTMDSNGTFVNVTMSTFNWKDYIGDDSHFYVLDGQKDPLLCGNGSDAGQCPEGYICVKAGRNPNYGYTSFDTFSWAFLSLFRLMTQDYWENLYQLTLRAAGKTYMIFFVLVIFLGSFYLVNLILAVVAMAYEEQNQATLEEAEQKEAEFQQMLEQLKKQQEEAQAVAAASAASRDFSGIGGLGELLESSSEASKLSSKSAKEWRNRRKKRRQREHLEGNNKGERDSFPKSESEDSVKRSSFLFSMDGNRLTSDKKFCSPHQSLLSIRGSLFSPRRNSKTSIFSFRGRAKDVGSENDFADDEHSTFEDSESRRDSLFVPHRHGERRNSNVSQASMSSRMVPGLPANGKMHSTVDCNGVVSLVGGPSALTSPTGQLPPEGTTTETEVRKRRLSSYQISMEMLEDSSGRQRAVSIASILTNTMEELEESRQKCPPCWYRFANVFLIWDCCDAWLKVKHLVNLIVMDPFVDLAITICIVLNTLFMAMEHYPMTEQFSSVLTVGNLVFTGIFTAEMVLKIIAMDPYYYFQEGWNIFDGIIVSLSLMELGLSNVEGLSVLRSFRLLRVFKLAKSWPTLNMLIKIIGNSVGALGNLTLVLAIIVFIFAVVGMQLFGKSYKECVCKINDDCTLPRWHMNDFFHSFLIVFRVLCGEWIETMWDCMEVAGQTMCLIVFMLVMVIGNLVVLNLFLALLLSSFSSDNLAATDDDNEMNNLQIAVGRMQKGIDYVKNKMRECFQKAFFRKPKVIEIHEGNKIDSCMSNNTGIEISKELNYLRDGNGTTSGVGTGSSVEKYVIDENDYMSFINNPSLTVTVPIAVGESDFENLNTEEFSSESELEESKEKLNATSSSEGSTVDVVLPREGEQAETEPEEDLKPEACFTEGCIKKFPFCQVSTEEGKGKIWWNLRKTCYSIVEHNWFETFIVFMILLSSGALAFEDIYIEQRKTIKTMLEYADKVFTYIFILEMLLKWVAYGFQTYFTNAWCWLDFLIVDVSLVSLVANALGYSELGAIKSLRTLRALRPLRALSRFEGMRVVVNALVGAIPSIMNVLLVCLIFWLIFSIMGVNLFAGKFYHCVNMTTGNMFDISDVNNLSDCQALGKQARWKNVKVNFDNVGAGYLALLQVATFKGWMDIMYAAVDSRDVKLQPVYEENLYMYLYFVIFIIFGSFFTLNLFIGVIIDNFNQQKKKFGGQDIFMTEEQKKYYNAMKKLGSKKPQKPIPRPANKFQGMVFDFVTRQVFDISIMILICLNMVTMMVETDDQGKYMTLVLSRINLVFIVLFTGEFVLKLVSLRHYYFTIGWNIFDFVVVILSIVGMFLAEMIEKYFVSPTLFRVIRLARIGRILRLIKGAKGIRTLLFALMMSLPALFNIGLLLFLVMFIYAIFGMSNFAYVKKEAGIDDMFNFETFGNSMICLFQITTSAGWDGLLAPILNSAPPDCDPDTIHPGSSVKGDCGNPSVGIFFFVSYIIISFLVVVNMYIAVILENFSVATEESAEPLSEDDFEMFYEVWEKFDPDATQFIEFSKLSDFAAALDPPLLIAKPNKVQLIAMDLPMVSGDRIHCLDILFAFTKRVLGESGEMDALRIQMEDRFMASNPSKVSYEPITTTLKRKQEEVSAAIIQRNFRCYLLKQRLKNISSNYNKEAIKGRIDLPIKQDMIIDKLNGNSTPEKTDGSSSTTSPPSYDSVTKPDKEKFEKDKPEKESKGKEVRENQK

One may read the IC50 as the concentration at which inhibition is half-maximal. A high value points to a need for much substance. Regarding `CC(C)CN(C)C(=O)c1cnc(N2CCCCC2)nc1-c1ccc(C#N)cc1` [compound 322], the IC50 in test [1] and in test [2] was over 10 µM throughout.
Consider `O=C(c1cnc(NCc2cccc(C(F)(F)F)c2)nc1-c1ccccc1F)N1CCOCC1` [compound 236], for which the IC50 in test [1] and in test [2] was over 10 µM throughout.
`COc1ccc(CCN(C)c2ncc(C(=O)N(C)CC(C)C)c(-c3ccc(C#N)cc3)n2)cc1OC` [compound 271]: the IC50 in test [1] and in test [2] was over 10 µM throughout.
In the case of `N#Cc1ccc(-c2nc(N3CCCC3)ncc2C(=O)NCC2CCCCC2)cc1` [compound 346], the IC50 in test [1] and in test [2] was over 10 µM in each case.
For the compound `CC(C)N(Cc1ccccc1)C(=O)c1cnc(N2CCOCC2)nc1-c1ccccc1F` [compound 326, 4-(2-Fluoro-phenyl)-2-morpholin-4-yl-pyrimidine-5-carboxylic acid benzyl-isopropyl-amide], the IC50 in test [1] was over 10 µM; in test [2], 2 to 10 µM.
Taken in the same sequence, the figures for `Cc1cccc(-c2nc(NCC3CCCCC3)ncc2C(=O)N2CCOCC2)c1` [compound 306] were over 10 µM and over 10 µM.
Taken in the same sequence, the figures for `CC1CC(C)CN(C(=O)c2cnc(NCc3cccc(Cl)c3)nc2-c2ccc(C#N)cc2)C1` (centres unmarked) [compound 238] were over 10 µM and over 10 µM.
For `COCCNc1ncc(C(=O)NCC2CCCCC2)c(-c2ccc(-c3ccccc3)cc2)n1` [compound 297], the IC50 in test [1] and in test [2] was over 10 µM in each case.
`COCCNc1ncc(C(=O)N(Cc2ccccc2)C(C)C)c(-c2ccccc2F)n1` [compound 300]: the IC50 in test [1] and in test [2] was over 10 µM in each case.
As to `CCN(Cc1cccc(C)c1)C(=O)c1cnc(N2CCOCC2)nc1-c1cccc(C)c1` [compound 266], the IC50 in test [1] and in test [2] was over 10 µM in each case.
For `CCCCNc1ncc(C(=O)N2CC(C)CC(C)C2)c(-c2ccc(C#N)cc2)n1` (centres unmarked) [compound 320], the IC50 in test [1] and in test [2] was over 10 µM in each case.
In the case of `N#Cc1ccc(-c2nc(NCc3ccccc3C(F)(F)F)ncc2C(=O)NCC2CC2)cc1` [compound 248], the IC50 in test [1] and in test [2] was over 10 µM each time.
Regarding `COCCNc1ncc(C(=O)N(CC(C)C)CC(C)C)c(-c2cccc(C)c2)n1` [compound 348], the IC50 in test [1] and in test [2] was over 10 µM throughout.
Take `CC(C)CN(CC(C)C)C(=O)c1cnc(N2CCCC2)nc1-c1ccc(C#N)cc1` [compound 341]: the IC50 in test [1] and in test [2] was over 10 µM in each case.
As for `CCC(C)NC(=O)c1cnc(N(C)CC(C)C)nc1-c1ccc(C#N)cc1` (centres unmarked) [compound 230], the IC50 in test [1] and in test [2] was over 10 µM throughout.
With `CC(=O)NCCNc1ncc(C(=O)N2CCC(C)CC2)c(-c2ccc(-c3ccccc3)cc2)n1` [compound 251], the IC50 in test [1] is over 10 µM; in test [2], 2 to 10 µM.
Turning to `Cc1cccc(-c2nc(NCc3cccc(Cl)c3)ncc2C(=O)N(C)CC(C)C)c1` [compound 235], the IC50 in test [1] and in test [2] was over 10 µM each time.
In the case of `CC(=O)NCCNc1ncc(C(=O)N(Cc2ccccc2)C(C)C)c(-c2ccc(C#N)cc2)n1` [compound 319], the IC50 in test [1] and in test [2] was over 10 µM each time.
Take `CCN(C)c1ncc(C(=O)NCCCOC)c(-c2cccc(C)c2)n1` [compound 223]: the IC50 in test [1] and in test [2] was over 10 µM each time.
Turning to `COCCCNc1ncc(C(=O)N(C)C2CCCCC2)c(-c2ccc(C#N)cc2)n1` [compound 303], the half-maximal inhibitory concentration (IC50) in test [1] and in test [2] was over 10 µM throughout.
As to `CCC1CCC(C)N(C(=O)c2cnc(NCCCOC)nc2-c2ccc(C#N)cc2)C1` (centres unmarked) [compound 294], the IC50 in test [1] and in test [2] was over 10 µM in each case.
On to `CCC(C)Nc1ncc(C(=O)NC2CCCCC2C)c(-c2ccccc2F)n1` (centres unmarked) [compound 253], for which the IC50 in test [1] and in test [2] was over 10 µM each time.
Regarding `CCN(Cc1cccc(C)c1)C(=O)c1cnc(NCCCOC)nc1-c1ccc(C#N)cc1` [compound 265], the IC50 in test [1] and in test [2] was over 10 µM each time.
Consider `CC1CC(C)CN(C(=O)c2cnc(N3CCOCC3)nc2-c2ccc(C#N)cc2)C1` (centres unmarked) [compound 333], for which the IC50 in test [1] and in test [2] was over 10 µM each time.
For the compound `CCC1CCC(C)N(C(=O)c2cnc(NCC3CC3)nc2-c2ccccc2F)C1` (centres unmarked) [compound 219], the IC50 is over 10 µM in test [1] and 2 to 10 µM in test [2].
`CC(C)N(Cc1ccccc1)C(=O)c1cnc(NCc2ccc3c(c2)OCO3)nc1-c1ccccc1F` [compound 301]: the IC50 in test [1] and in test [2] was over 10 µM each time.
For `COCCCNC(=O)c1cnc(NCCc2ccc(OC)cc2)nc1-c1cccc(C)c1` [compound 258], the IC50 in test [1] and in test [2] was over 10 µM throughout.
For `N#Cc1ccc(-c2nc(NCC3CCCCC3)ncc2C(=O)NCCc2cccc(F)c2)cc1` [compound 345], the IC50 in test [1] and in test [2] was over 10 µM in each case.
With `COCCCNc1ncc(C(=O)N(Cc2ccccc2)C(C)C)c(-c2ccccc2F)n1` [compound 296], the IC50 in test [1] and in test [2] was over 10 µM in each case.
On to `CCN(Cc1ccccc1)C(=O)c1cnc(N2CCCC(C(N)=O)C2)nc1-c1ccccc1F` (centres unmarked) [compound 289], for which the IC50 in test [1] and in test [2] was over 10 µM throughout.
As to `CCN(Cc1ccccc1)C(=O)c1cnc(N2CCOCC2)nc1-c1ccc(C#N)cc1` [compound 313], the IC50 in test [1] and in test [2] was over 10 µM in each case.
With `CCN(Cc1ccccc1)C(=O)c1cnc(N2CCOCC2)nc1-c1cccc(C)c1` [compound 243], the IC50 in test [1] and in test [2] was over 10 µM throughout.
For `CCN(Cc1cccc(C)c1)C(=O)c1cnc(NC2CCCC2)nc1-c1ccc(C#N)cc1` [compound 239], the results for the IC50 in test [1] and in test [2] were over 10 µM and 2 to 10 µM, respectively.
`CC1CCN(c2ncc(C(=O)N(C)C3CCCCC3)c(-c3ccc(C#N)cc3)n2)CC1` [compound 241]: the IC50 in test [1] and in test [2] was over 10 µM throughout.
On to `CC(C)CN(C)C(=O)c1cnc(NCc2ccc3c(c2)OCO3)nc1-c1ccc(C#N)cc1` [compound 263], for which the results for the IC50 in test [1] and in test [2] were over 10 µM and 2 to 10 µM, respectively.
`COc1ccccc1CCNC(=O)c1cnc(N2CCOCC2)nc1-c1ccccc1F` [compound 302]: the IC50 in test [1] and in test [2] was over 10 µM each time.
As to `O=C(NCc1ccccc1)c1cnc(NCCc2cccc(F)c2)nc1-c1ccccc1F` [compound 224], the IC50 in test [1] and in test [2] was over 10 µM throughout.
Turning to `CCC1CCC(C)N(C(=O)c2cnc(NCCc3ccc(OC)cc3)nc2-c2ccc(C#N)cc2)C1` (centres unmarked) [compound 329], the IC50 in test [1] was over 10 µM; in test [2], 2 to 10 µM.
Taken in the same sequence, the figures for `COCCNc1ncc(C(=O)N(C)C2CCCCC2)c(-c2ccccc2F)n1` [compound 276] were over 10 µM and over 10 µM.
As to `CC(C)CN(C)C(=O)c1cnc(N2CCCC2)nc1-c1ccccc1F` [compound 270], the IC50 in test [1] and in test [2] was over 10 µM throughout.
As for `CN(C(=O)c1cnc(NCC2CC2)nc1-c1ccc(C#N)cc1)C1CCCCC1` [compound 298], the IC50 in test [1] and in test [2] was over 10 µM in each case.
As to `COc1cccc(OC)c1CNc1ncc(C(=O)N(C)CC(C)C)c(-c2ccccc2F)n1` [compound 255], the IC50 in test [1] and in test [2] was over 10 µM in each case.
Take `CCN(Cc1ccccc1)C(=O)c1cnc(N2CCCC(C(N)=O)C2)nc1-c1ccc(C#N)cc1` (centres unmarked) [compound 259]: the IC50 in test [1] and in test [2] was over 10 µM each time.
Regarding `CCN(Cc1ccccc1)C(=O)c1cnc(N2CCOCC2)nc1-c1ccccc1F` [compound 350], the IC50 in test [1] and in test [2] was over 10 µM throughout.
For `COCCCNc1ncc(C(=O)NCC2CC2)c(-c2ccc(C#N)cc2)n1` [compound 231], the IC50 in test [1] and in test [2] was over 10 µM throughout.
Regarding `N#Cc1ccc(-c2nc(NCC3CCCCC3)ncc2C(=O)N2CCCCC2)cc1` [compound 245], the IC50 in test [1] and in test [2] was over 10 µM throughout.
Regarding `CCN(Cc1cccc(C)c1)C(=O)c1cnc(NCCNC(C)=O)nc1-c1ccccc1F` [compound 308], the IC50 in test [1] and in test [2] was over 10 µM throughout.
Consider `COCCNc1ncc(C(=O)N2CCOCC2)c(-c2cccc(C)c2)n1` [compound 321], for which the IC50 in test [1] and in test [2] was over 10 µM throughout.
Regarding `O=C(NCc1ccccc1C(F)(F)F)c1cnc(N2CCOCC2)nc1-c1ccccc1F` [compound 242], the IC50 in test [1] and in test [2] was over 10 µM in each case.
